The values that follow come from ChEMBL document CHEMBL1136496, “Synthesis and evaluation of optically pure dioxolanes as inhibitors of hepatitis C virus RNA replication” (Bioorg Med Chem Lett, 2003).

By EC50 is commonly meant the concentration at which the effect is half-maximal. Read a low EC50 as higher potency in that assay.

Bounds are passed on as bounds.

The test system of this experiment is Nucleic Acid. The experiment in a line: Concentration required to inhibit HCV RNA replication was determined. The class given is functional, Hepacivirus hominis.

Take `C[C@H]1O[C@@H](CO)O[C@H]1n1ccc2c(N)ncnc21`: the EC50 is > 50 µM.
Take `Nc1ncnc2c1ccn2[C@H]1CO[C@@H](CO)O1`: the EC50 was > 50 µM.
Next, `C[C@H]1O[C@@H](CO)O[C@@H]1n1ccc2c(N)ncnc21`: > 50 µM; `C[C@H]1O[C@@H](CO)O[C@H]1n1ccc2c(O)nc(N)nc21`: > 50 µM; `Nc1nc(O)c2ccn([C@H]3CO[C@@H](CO)O3)c2n1`: > 50 µM.
The same measure for `Nc1ncnc2c1ccn2[C@@H]1CO[C@@H](CO)O1`: > 50 µM.
